Test results reported in patent publication US8383683B2, “Pharmaceutical use of substituted amides” (High Point Pharmaceuticals, LLC, priority 2007, dated 2013).

Biological target: 11βHSD1 (Homo sapiens, UniProt P28845)
Experiment: 11βHSD1 enzyme assay (SPA, 3H-cortisone to 3H-cortisol)
Format: biochemical
Design: An extract of yeast transformed with h-11βHSD1 (Hutt et al., FEBS Lett., 441, 25 (1998)) was used as the source of enzyme; made in house
Settings: extract of yeast transformed with h-11βHSD1; 120 nM 3H-cortisone, 4 mM β-NADPH, 60 min at 30° C.
Method: Pharmacological Methods 11βHSD1 Enzyme Assay Materials
^3H-cortisone and anti-rabbit Ig coated scintillation proximity assay (SPA) beads were purchased from Amersham Pharmacia Biotech, β-NADPH was from Sigma and rabbit anti-cortisol antibodies were from Fitzgerald. An extract of yeast transformed with h-11βHSD1 (Hutt et al., FEBS Lett., 441, 25 (1998)) was used as the source of enzyme. The test compounds were dissolved in DMSO (10 mM). All dilutions were performed in a buffer containing 50 mM TRIS-HCl (Sigma Chemical Co), 4 mM EDTA (Sigma Chemical Co), 0.1% BSA (Sigma Chemical Co), 0.01% Tween-20 (Sigma Chemical Co) and 0.005% bacitracin (Novo Nordisk NS), pH=7.4. Optiplate 96 wells plates were supplied by Packard. The amount of ^3H-cortisol bound to the SPA beads was measured on TopCount NXT, Packard.
h-11βHSD1, 120 nM ^3H-cortisone, 4 mM β-NADPH, antibody (1:200), serial dilutions of test compound and SPA particles (2 mg/well) were added to the wells. The reaction was initiated by mixing the different components and was allowed to proceed under shaking for 60 min at 30° C. The reaction was stopped be the addition of 10 fold excess of a stopping buffer containing 500 μM carbenoxolone and 1 μM cortisone. Data was analysed using GraphPad Prism software.

11βHSD1, sequence (P28845 whole entry): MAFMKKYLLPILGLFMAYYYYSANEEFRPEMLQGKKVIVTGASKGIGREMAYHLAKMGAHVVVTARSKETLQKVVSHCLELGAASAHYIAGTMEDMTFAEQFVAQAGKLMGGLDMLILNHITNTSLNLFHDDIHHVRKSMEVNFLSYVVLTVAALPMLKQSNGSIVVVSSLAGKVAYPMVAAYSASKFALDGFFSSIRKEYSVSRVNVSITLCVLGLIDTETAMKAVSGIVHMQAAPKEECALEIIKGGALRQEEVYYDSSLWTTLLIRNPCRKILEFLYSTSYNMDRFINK

SMILES	IC50 [nM]
COC(=O)C1CC2CCC(C1)N2C(=O)CCCOc1ccc(Cl)cc1Cl (stereo not shown) [Example 1-17, 8-[4-(2,4-Dichloro-phenoxy)-butyryl]-8-aza-bicyclo[3.2.1]octane-3-carboxylic acid methyl ester]	7
O=C(CCCOc1ccc(Cl)cc1Cl)NC12CC3CC(CC(CO)(C3)C1)C2 [Example 1-28, 4-(2,4-Dichloro-phenoxy)-N-(3-hydroxy-methyl-adamantan-1-yl)-butyramide]	1
O=C(CCCOc1ccc(Cl)cc1Cl)NC1C2CC3CC(C2)C(CO)C1C3 (stereo not shown) [Example 1-21, 4-(2,4-Dichloro-phenoxy)-N-(4-hydroxy-methyl-adamantan-2-yl)-butyramide]	1
CCN(C(=O)CCCOc1ccc(Cl)cc1Cl)C1C2CC3CC1CC(O)(C3)C2 (stereo not shown) [Example 1-33, 4-(2,4-Dichloro-phenoxy)-N-ethyl-N-(5-hydroxy-adamantan-2-yl)-butyramide]	7
CN(C(=O)CCCOc1ccc(Cl)cc1Cl)C1CCCC(CO)C1 (stereo not shown) [Example 1-59, 4-(2,4-Dichloro-phenoxy)-N-(3-hydroxy-methyl-cyclo-hexyl)-N-methyl-butyramide]	3
CN(C(=O)CCCOc1ccc(Cl)cc1Cl)C1CCC(C(C)(C)O)CC1 (stereo not shown) [Example 1-78, 4-(2,4-Dichloro-phenoxy)-N-[4-(1-hydroxy-1-methyl-ethyl)-cyclohexyl]-N-methyl-butyramide]	23
CN(C(=O)CCCOc1ccc(Cl)cc1Cl)C1CC2CC1CC2O (stereo not shown) [Example 1-64, 4-(2,4-Dichloro-phenoxy)-N-(5-hydroxy-bicyclo[2.2.1]hept-2-yl)-N-methyl-butyramide]	2
CC(C)(O)C12CC3CC(C1)C(NC(=O)CCCOc1ccc(Cl)cc1Cl)C(C3)C2 (stereo not shown) [Example 1-83, 4-(2,4-Dichloro-phenoxy)-N-[5-(1-hydroxy-1-methyl-ethyl)-adamantan-2-yl]-butyramide]	9
CN(C(=O)CCCOc1ccc(Cl)cc1Cl)C1CCCC(C(=O)O)C1 (stereo not shown) [Example 1-58, 3-{[4-(2,4-Dichloro-phenoxy)-butyryl]-methyl-amino}-cyclo-hexanecarboxylic acid]	55
O=C(CCCOc1ccc(Cl)cc1Cl)NC12CC3CC(C1)CC(C(=O)O)(C3)C2 [Example 1-31, 3-[4-(2,4-Dichloro-phenoxy)-butyrylamino]-adamantane-1-carboxylic acid]	11
O=C(CCCOc1ccc(Cl)cc1Cl)N1CC2CC3CC1CC(C(=O)O)(C3)C2 (stereo not shown) [Example 1-67, 4-[4-(2,4-Dichloro-phenoxy)-butyryl]-4-aza-tricyclo[4.3.1.1{3,8}]-undecane-1-carboxylic acid]	25
O=C(CCCOc1ccccc1)N1CC2CC1CC2O (stereo not shown) [Example 1-46, 1-(5-Hydroxy-2-aza-bicyclo[2.2.1]hept-2-yl)-4-phenoxy-butan-1-one]	1510
O=C(CCCOc1ccc(Cl)cc1Cl)NC1C2CC3CC1CC(CO)(C3)C2 (stereo not shown) [Example 1-55, 4-(2,4-Dichloro-phenoxy)-N-(5-hydroxy-methyl-adamantan-2-yl)-butyramide]	2
O=C(CCCOc1ccccc1)NC12CC3CC(CC(CO)(C3)C1)C2 [Example 1-45, N-(3-Hydroxymethyl-adamantan-1-yl)-4-phenoxy-butyramide]	9
O=C(CCCOc1ccccc1)NC12CC3CC(C1)CC(C(=O)O)(C3)C2 [Example 1-53, 3-(4-Phenoxy-butyryl-amino)-adamantane-1-carboxylic acid]	194
CN(C(=O)CCCOc1ccc(Cl)cc1Cl)C1CCC(S(=O)(=O)N(C)C)CC1 (stereo not shown) [Example 1-71, 4-(2,4-Dichloro-phenoxy)-N-(4-dimethyl-sulfamoyl-cyclohexyl)-N-methyl-butyramide]	21

SMILES	IC50 [nM]
O=C(CCCOc1ccc(Cl)cc1Cl)NC(c1ccccc1)C1CC1 (stereo not shown) [Example 1-3, N-(Cyclopropyl-phenyl-methyl)-4-(2,4-dichloro-phenoxy)-butyramide]	405
CC(C)(CCOc1ccc(Cl)cc1Cl)C(=O)NC1C2CC3CC1CC(CO)(C3)C2 (stereo not shown) [Example 2-4, 4-(2,4-Dichloro-phen-oxy)-N-(5-hydroxy-methyl-adamantan-2-yl)-2,2-dimethyl-butyramide]	3
CN(C(=O)CCCOc1ccc(Cl)cc1Cl)C1CCC(C(=O)O)CC1 (stereo not shown) [Example 1-74, 4-{[4-(2,4-Dichloro-phenoxy)-butyryl]-methyl-amino}-cyclo-hexanecarboxylic acid]	809
O=C(CCCOc1ccc(Cl)cc1Cl)N1CC2CCC(C1)C2O (stereo not shown) [Example 1-35, 4-(2,4-Dichloro-phenoxy)-1-(8-hydroxy-3-aza-bicyclo[3.2.1]oct-3-yl)-butan-1-one]	252
O=C(CCCOc1ccccc1)NC1C2CC3CC1CC(CO)(C3)C2 (stereo not shown) [Example 1-54, N-(5-Hydroxymethyl-adamantan-2-yl)-4-phenoxy-butyramide]	10
CC(C)N(C(=O)CCCOc1ccc(Cl)cc1Cl)C1C2CC3CC1CC(O)(C3)C2 (stereo not shown) [Example 1-56, 4-(2,4-Dichloro-phenoxy)-N-(5-hydroxy-adamantan-2-yl)-N-isopropyl-butyramide]	322
CCOC(=O)C1CC2CC1CC2N(C)C(=O)CCCOc1ccc(Cl)cc1Cl (stereo not shown) [Example 1-80, 5-{[4-(2,4-Dichloro-phenoxy)-butyryl]-methyl-amino}-bicyclo[2.2.1]heptane-2-carboxylic acid ethyl ester]	700
CN(C(=O)CCCOc1ccc(Cl)cc1Cl)C1C2CC3CC1CC(CO)(C3)C2 (stereo not shown) [Example 1-65, 4-(2,4-Dichloro-phenoxy)-N-(5-hydroxy-methyl-adamantan-2-yl)-N-methyl-butyramide]	4
CN(C(=O)CCCOc1ccc(Cl)cc1Cl)[C@H]1CCCC[C@@H]1CO [Example 1-62, 4-(2,4-Dichloro-phenoxy)-N-((S)-2-hydroxymethyl-cyclo-hexyl)-N-methyl-butyramide]	123
CN(C(=O)CCCOc1ccc(Cl)cc1Cl)C1CCC(CO)CC1 (stereo not shown) [Example 1-60, 4-(2,4-Dichloro-phenoxy)-N-(4-hydroxy-methyl-cyclohexyl)-N-methyl-butyramide]	1
CN(C(=O)CCCOc1ccc(Cl)cc1Cl)C1CCCC(O)C1 (stereo not shown) [Example 1-61, 4-(2,4-Dichloro-phenoxy)-N-(3-hydroxy-cyclohexyl)-N-methyl-butyramide]	56
CCN(C(=O)CCCOc1ccc(Cl)cc1Cl)C1C2CC3CC1CC(O)(C3)C2 (stereo not shown) [Example 1-34, 4-(2,4-Dichloro-phenoxy)-N-ethyl-N-(5-hydroxy-adamantan-2-yl)-butyramide]	172
COC(=O)C12CC3CC(CN(C(=O)CCCOc4ccc(Cl)cc4Cl)C(C3)C1)C2 (stereo not shown) [Example 1-66, 4-[4-(2,4-Dichloro-phenoxy)-butyryl]-4-aza-tricyclo[4.3.1.1{3,8}]-undecane-1-carboxylic acid methyl ester]	3
O=C(CCCOc1ccc(Cl)cc1Cl)N(C1CC1)C1C2CC3CC1CC(O)(C3)C2 (stereo not shown) [Example 1-18, N-Cyclopropyl-4-(2,4-dichloro-phenoxy)-N-(5-hydroxy-adamantan-2-yl)-butyramide]	209
CN(C(=O)CCCOc1ccc(Cl)cc1Cl)C1CCC(S(=O)(=O)N(C)C)CC1 (stereo not shown) [Example 1-70, 4-(2,4-Dichloro-phenoxy)-N-(4-dimethyl-sulfamoyl-cyclohexyl)-N-methyl-butyramide]	479
